Experimental data as given in patent publication US20080069776A1, “HISTOFLUORESCENT STAIN FOR ENDOSCOPY” (PENTAX CORPORATION, priority 2006, published 2008).

Tests used:
large intestine = test: Fluorescence observation of extracted large intestine stained with the dye, confocal microscope; set-up: species or system mouse
Protocol: Brilliant Green (manufactured by Sigma-Aldrich Company, B4014-25G) was prepared as a solution using distilled water, and the concentration was adjusted to 1.0 mg/mL.
A mouse (ddY, 13 weeks old, male) was subjected to laparotomy under anesthesia, and the large intestine was extracted. Immediately after extraction, the prepared solution of Brilliant Green was applied onto the large intestine, and fluorescence observation of the specimen by a confocal imaging system using a confocal microscope (manufactured by Leica Corp., TCPSP2) was performed. Here, the stainability, penetrability, and fluorescence properties of Brilliant Green were examined.
Observation was performed for the cross-sections at every 5 μm from the luminal surface layer of the flesh specimen of extracted large intestine, to the depth direction (FIG. 5).

[1] = Absorbance and fluorescence spectra of the dye in distilled water (spectrophotometer / fluorescence spectrophotometer); type: physicochemical; conditions: for maximum absorption wavelength / maximum fluorescence wavelength / maximum excitation wavelength: 0.001 mg/mL in distilled water; for maximum absorption wavelength: absorbance measured 200 to 750 nm; for maximum fluorescence wavelength: excited at maximum absorption wavelength; for maximum fluorescence wavelength / maximum excitation wavelength: fluorescence spectrophotometer; for fluorescence in solution state: stain prepared as a solution, red wavelength region
Protocol: Brilliant Green (manufactured by Sigma-Aldrich Company, B4014-25G) was adjusted with distilled water to a concentration of 0.001 mg/mL, and the light absorbance was continuously measured over a wavelength range from 200 to 750 nm using a spectrophotometer (manufactured by Shimadzu Corporation, BioSpec-1600) to determine the wavelength at which the absorption was the maximum. The maximum absorption wavelength of 625 nm thus obtained was irradiated as an excitation wavelength, and the wavelength of the scattered light detected in the perpendicular direction to the light axis of the excitation light was measured using a fluorescence spectrophotometer (manufactured by Shimadzu Corporation, RF-1500), thus to obtain a maximum fluorescence wavelength of 625 nm. The maximum excitation wavelength measured using this fluorescence spectrophotometer was 627 nm.
This implies that the compound is not undergoing the process of excitation by an irradiated light and emission of fluorescence.
As a comparison to Brilliant Green, the wavelength pattern of Rhodamine B, which stains the inner part of cells in the lumen of the large intestine or the like in the same manner as Brilliant Green does, was measured.

[2] = target: T1, Albumin (from Bovine Serum, Globulin Free) (Bos taurus, UniProt P02769); test: Fluorescence spectrum of liquid mixture of Brilliant Green and albumin; type: physicochemical
T1 construct: Albumin (from Bovine Serum, Globulin Free); purchased Wako Pure Chemical Industries, Ltd. 013-15104; host or cells: bovine serum
Protocol: Brilliant Green (manufactured by Sigma-Aldrich Company, B4014-25G) was prepared as a solution at 0.1 mg/mL using distilled water. Albumin (from Bovine Serum, Globulin Free; Wako Pure Chemical Industries, Ltd., 013-15104) was prepared as a solution at 2.0 mg/mL using physiological saline. Using a 0.1 M phosphate buffer solution (pH 5) and the 2.0 mg/mL albumin solution prepared above, a liquid mixture of 0.01 mg/mL Brilliant Green and albumin was prepared. The maximum absorption wavelength of Brilliant Green of 625 nm was irradiated as the excitation wavelength, and the wavelength of the scattered light detected in the perpendicular direction to the light axis of the excitation light, was measured using a spectrophotometer (manufactured by Shimadzu Corporation, RF-1500). The maximum fluorescence wavelength was 651 nm.
As a comparison to the liquid mixture of Brilliant Green and albumin, the maximum fluorescence wavelength of an albumin solution was measured with respect to an excitation wavelength of 625 nm, which was shown in FIG. 4.

T1 sequence (P02769 25-607): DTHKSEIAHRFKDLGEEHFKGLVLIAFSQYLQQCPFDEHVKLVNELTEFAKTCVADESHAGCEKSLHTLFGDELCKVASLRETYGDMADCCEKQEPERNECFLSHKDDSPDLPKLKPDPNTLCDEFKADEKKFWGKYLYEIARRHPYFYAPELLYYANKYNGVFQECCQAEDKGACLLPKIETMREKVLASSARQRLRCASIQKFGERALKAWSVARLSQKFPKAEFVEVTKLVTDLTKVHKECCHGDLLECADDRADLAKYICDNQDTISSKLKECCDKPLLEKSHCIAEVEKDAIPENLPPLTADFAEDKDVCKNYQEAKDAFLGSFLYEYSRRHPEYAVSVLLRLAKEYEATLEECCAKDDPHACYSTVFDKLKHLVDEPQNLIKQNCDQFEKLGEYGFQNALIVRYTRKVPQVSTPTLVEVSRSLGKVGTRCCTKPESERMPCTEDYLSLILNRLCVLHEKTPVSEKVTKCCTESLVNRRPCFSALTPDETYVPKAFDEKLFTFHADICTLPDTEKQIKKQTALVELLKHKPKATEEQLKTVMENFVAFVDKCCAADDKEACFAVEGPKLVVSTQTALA

| SMILES | depth to which observation could be sufficiently made from the luminal surface layer (large intestine; 1.0 mg/mL solution applied onto extracted mouse large intestine, cross-sections every 5 μm) | stainability of the tissue (cross-sectional images) (large intestine; 1.0 mg/mL, sites 10 μm and 15 μm deep from the surface layer) | maximum absorption wavelength [1] | maximum fluorescence wavelength [1] | maximum excitation wavelength [1] | fluorescence in solution state [1] | maximum fluorescence wavelength ([2]; 0.01 mg/mL Brilliant Green with albumin, 0.1 M phosphate buffer pH 5, excitation 625 nm) | fluorescence when bound to albumin ([2]; light source in the red wavelength region) |
| --- | --- | --- | --- | --- | --- | --- | --- | --- |
| CCN(CC)c1ccc(C(=C2C=CC(=[N+](CC)CC)C=C2)c2ccccc2)cc1.O=S(=O)([O-])O [Brilliant Green] | 35 μm | The cytoplasm is well stained, while the interstitial space is contrastively dark | 625 nm | 625 nm | 627 nm | no fluorescence was detected | 651 nm | emits fluorescence, when bound to albumin |
| CCN(Cc1cccc(S(=O)(=O)[O-])c1)c1ccc(C(=C2C=CC(=[N+](CC)Cc3cccc(S(=O)(=O)[O-])c3)C=C2)c2ccccc2S(=O)(=O)[O-])cc1.[Na+].[Na+] [Brilliant Blue FCF, reference compound] |  |  | 629 nm | 650 nm | 619 nm |  |  |  |
| CCN(CC)c1ccc2c(-c3ccccc3C(=O)O)c3ccc(=[N+](CC)CC)cc-3oc2c1.[Cl-] [Rhodamine B, reference compound] |  |  |  |  |  | exhibits intense fluorescence even in a solution state |  |  |
